One assay concerns RIPK1. Kind of assay: ELISA of RIPK1 released in supernatant of L929 cells exposed to TNFα. The format is cell-based, murine. To be noted: 20 μM, 2 h, then TNFα (25 ng/mL) 6 h. As for the experimental part:
FIG. 12. […] Results are shown as mean±SEM of six replicates.
L929 cells (LGC Standards, Molsheim, France), were cultured in Dulbecco's modified Eagle's medium (DMEM) (ThermoFisher, Massachusetts, USA) supplemented with 10% fetal bovine serum (Eurobio, Courtaboeuf, France), penicillin (100 IU/ml), streptomycin (0.1 mg/ml), and L-glutamine (0.03%) (ThermoFisher). […] AML-12 (alpha mouse liver-12) hepatocytes (LGC Standards) were cultured in DMEM/F12 Medium (ThermoFisher) supplemented with 10% fetal bovine serum (Eurobio), 10 μg/ml insulin, 5.5 μg/ml transferrin, 5 ng/ml selenium and 40 ng/ml dexamethasone (Sigma, Missouri, USA). AML-12 hepatocytes were stimulated with insulin (#I0516, 10 nM; Sigma) for 15 minutes.
Protein concentrations of human RIPK1 (SEE640Hu; Could-Clone Corp., Texas, USA), human MLKL (SER645Hu; Could-Clone Corp.) and murine RIPK1 (CSB-EL019735MO; Cusabio, Texas, USA) were determined by an ELISA kit according to the manufacturer's instructions.

The target of assay [1] is T1, receptor-interacting protein kinase 1 (RIPK1) (Homo sapiens, UniProt Q13546).
T1 sequence (Q13546 1-671): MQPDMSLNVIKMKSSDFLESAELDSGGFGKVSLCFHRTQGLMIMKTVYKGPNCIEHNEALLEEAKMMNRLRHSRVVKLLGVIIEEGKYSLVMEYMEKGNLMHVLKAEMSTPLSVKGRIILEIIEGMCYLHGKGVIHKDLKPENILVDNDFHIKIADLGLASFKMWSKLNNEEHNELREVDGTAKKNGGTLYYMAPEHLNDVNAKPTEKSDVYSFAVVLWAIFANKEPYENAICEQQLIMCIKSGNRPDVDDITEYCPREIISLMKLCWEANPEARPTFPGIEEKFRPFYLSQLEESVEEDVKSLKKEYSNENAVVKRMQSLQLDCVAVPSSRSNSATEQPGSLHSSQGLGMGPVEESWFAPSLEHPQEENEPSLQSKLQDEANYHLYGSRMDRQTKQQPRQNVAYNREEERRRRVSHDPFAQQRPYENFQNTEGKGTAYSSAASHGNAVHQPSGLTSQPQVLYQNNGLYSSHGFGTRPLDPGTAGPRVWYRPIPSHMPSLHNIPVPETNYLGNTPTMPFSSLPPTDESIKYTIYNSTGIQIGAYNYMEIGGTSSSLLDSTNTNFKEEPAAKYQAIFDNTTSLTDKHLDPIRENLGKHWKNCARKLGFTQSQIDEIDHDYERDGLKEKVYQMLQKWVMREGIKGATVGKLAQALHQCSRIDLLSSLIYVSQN
As to conditions: Ren et al., J Med Chem 2017; cited from earlier work.

In the case of `CCC(C)(C)C(=O)N(O)Cc1ccccc1` [RIPA-56, N-Benzyl-N-hydroxy-2,2-dimethylbutanamide], in the assay with RIPK1, the “RIPK1 in the supernatant” value is “undetectable”. Moreover, the RIPK1 inhibitor profile entry in assay [1] is “selective and metabolically stable inhibitor”.

The record behind these values is US12653796B2, “Compounds for use (in particular RIPA-56) in the prevention and/or treatment of non-alcoholic fatty liver disease” (SORBONNE UNIVERSITE, priority 2019, dated 2026).
